Experiments:
Format in all cases: in vivo
[1] = test system: ducksalad (Heteranthera limosa); test: Test B flooded paddy test; conditions: for Plant response rating, Flood, Ducksalad: 250 g ai/ha, flooded paddy test, visual rating on 0 to 100 scale (0 no effect, 100 complete control) after 13 to 15 days; for Plant response rating, Ducksalad: Flood (flooded paddy test), 13 to 15 days; for Ducksalad plant response rating: Flood, 31 g ai/ha, scale 0 to 100 (0 no effect, 100 complete control)
Method in brief: (§1)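 Greenhouse-held for 13 to 15 days, treated pots were compared visually with controls and scored 0–100 (0, no effect). Treatment had been made into paddy water kept at 3 cm above the soil, with plants at the 2-leaf stage.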

[2] = test system: barnyardgrass (Echinochloa crus-galli); test: Test B flooded paddy test; conditions: for Plant response rating, Flood, Barnyardgrass: 250 g ai/ha, flooded paddy test, visual rating on 0 to 100 scale (0 no effect, 100 complete control) after 13 to 15 days; for Plant response rating, Barnyardgrass: Flood (flooded paddy test), 13 to 15 days; for Barnyardgrass plant response rating: Flood, 31 g ai/ha, scale 0 to 100 (0 no effect, 100 complete control)
Method in brief: as §1

rice (Oryza sativa) = test: Test B flooded paddy test; conditions: for Plant response rating, Flood, Rice: 250 g ai/ha, flooded paddy test, visual rating on 0 to 100 scale (0 no effect, 100 complete control) after 13 to 15 days; for Plant response rating, Rice: Flood (flooded paddy test), 13 to 15 days; for Rice plant response rating: Flood, 31 g ai/ha, scale 0 to 100 (0 no effect, 100 complete control)
Method in brief: as §1

[3] = test system: umbrella sedge (Cyperus difformis); test: Test B flooded paddy test; conditions: for Plant response rating, Flood, Sedge, Umbrella: 250 g ai/ha, flooded paddy test, visual rating on 0 to 100 scale (0 no effect, 100 complete control) after 13 to 15 days; for Plant response rating, Sedge, Umbrella: Flood (flooded paddy test), 13 to 15 days; for Sedge, Umbrella plant response rating: Flood, 31 g ai/ha, scale 0 to 100 (0 no effect, 100 complete control)
Method in brief: as §1

corn (Zea mays) = test: Test A pre-/postemergence plant response; conditions: for Corn plant response rating: visual injury, 0 to 100 scale (0 no effect, 100 complete control), approx. ten days
Method in brief: (§2)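 Approximately ten days after concurrent pre- and postemergence spraying in a greenhouse, plants were compared with untreated controls and rated visually for injury, 0 = no effect to 100 = complete control. Preemergence spray was directed onto loam/sand soil; postemergence targeted 1–2 leaf seedlings.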

[4] = test system: velvetleaf (Abutilon theophrasti); test: Test A pre-/postemergence plant response
Method in brief: as §2

[5] = test system: pigweed (Amaranthus retroflexus); test: Test A pre-/postemergence plant response
Method in brief: as §2

[6] = test system: barnyardgrass (Echinochloa crus-galli); test: Test A pre-/postemergence plant response; conditions: for Barnyardgrass plant response rating: visual injury, 0 to 100 scale (0 no effect, 100 complete control), approx. ten days
Method in brief: as §2

[7] = test system: wheat (Triticum aestivum); test: Test A pre-/postemergence plant response
Method in brief: as §2

[8] = test system: morningglory (Ipomoea spp.); test: Test A pre-/postemergence plant response
Method in brief: as §2

[9] = test system: giant foxtail (Setaria faberii); test: Test A pre-/postemergence plant response
Method in brief: as §2

[10] = test system: large crabgrass (Digitaria sanguinalis); test: Test A pre-/postemergence plant response; conditions: for Crabgrass, Large plant response rating: visual injury, 0 to 100 scale (0 no effect, 100 complete control), approx. ten days
Method in brief: as §2

[11] = 62 g ai/ha, scale of 0 to 100 where 0 is no effect and 100 is complete control
[12] = 125 g ai/ha, scale 0 to 100, 0 is no effect, 100 is complete control
[13] = Postemergence, 125 g ai/ha, 0 to 100 scale where 0 is no effect and 100 is complete control
[14] = Preemergence, 125 g ai/ha, 0 to 100 scale where 0 is no effect and 100 is complete control, approximately ten days
[15] = Preemergence, 500 g ai/ha, 0 to 100 scale, 0 = no effect, 100 = complete control
[16] = Postemergence, 125 g ai/ha, visual injury, 0 to 100 scale (0 no effect, 100 complete control), approx. ten days
[17] = Postemergence, 500 g ai/ha, visual injury, 0 to 100 scale (0 no effect, 100 complete control), approx. ten days

`O=C(C1=C(O)C2CCC(C2)C1=O)c1cnc(-c2ccccc2)n(C2CCOCC2)c1=O` (stereo not drawn) [Compound 249] was tested, and the “Plant response rating, Flood, Ducksalad” value [1] was 90, the “Plant response rating, Ducksalad” value [1, 11] was 65 and the “Plant response rating, Ducksalad” value [1, 12] was 80. For the same molecule, the “Ducksalad plant response rating” value [1] was 0, the “Plant response rating, Flood, Barnyardgrass” value [2] was 0 and the “Plant response rating, Barnyardgrass” value [2, 11] was 0. For the same molecule, the “Plant response rating, Barnyardgrass” value [2, 12] was 0, the “Barnyardgrass plant response rating” value [2] was 0 and the “Plant response rating, Flood, Rice” value (rice (Oryza sativa)) was 15. The “Plant response rating, Rice” value (rice (Oryza sativa); [11]) was 0, the “Plant response rating, Rice” value (rice (Oryza sativa); [12]) was 0 and the “Rice plant response rating” value (rice (Oryza sativa)) was 0. The “Plant response rating, Flood, Sedge, Umbrella” value [3] was 90, the “Plant response rating, Sedge, Umbrella” value [3, 11] was 60 and the “Plant response rating, Sedge, Umbrella” value [3, 12] was 85. For the same molecule, the “Sedge, Umbrella plant response rating” value [3] was 0, the “Plant response rating, Corn” value (corn (Zea mays); [13]) was 0 and the “Corn plant response rating” value (corn (Zea mays); Postemergence, 500 g ai/ha) was 20. The “Plant response rating, Corn” value (corn (Zea mays); [14]) was 0, the “Plant response rating, Corn” value (corn (Zea mays); [15]) was 0 and the “Plant response rating, Velvetleaf” value [4, 16] was 100. The “Velvetleaf plant response rating” value [4, 17] was 100, the “Plant response rating, Velvetleaf” value [4, 14] was 60 and the “Plant response rating, Velvetleaf” value [4, 15] was 90. For the same molecule, the “Plant response rating, Pigweed” value [5, 16] was 90, the “Pigweed plant response rating” value [5, 17] was 100 and the “Plant response rating, Pigweed” value [5, 14] was 80. The “Plant response rating, Pigweed” value [5, 15] was 100, the “Plant response rating, Barnyardgrass” value [6, 13] was 90 and the “Barnyardgrass plant response rating” value ([6]; Postemergence, 500 g ai/ha) was 100. For the same molecule, the “Plant response rating, Barnyardgrass” value [6, 14] was 0, the “Plant response rating, Barnyardgrass” value [6, 15] was 40 and the “Plant response rating, Wheat” value [7, 16] was 10. For the same molecule, the “Wheat plant response rating” value [7, 17] was 50, the “Plant response rating, Wheat” value [7, 14] was 0 and the “Plant response rating, Wheat” value [7, 15] was 0. The “Plant response rating, Morningglory” value [8, 16] was 100, the “Morningglory plant response rating” value [8, 17] was 100 and the “Plant response rating, Morningglory” value [8, 14] was 30. For the same molecule, the “Plant response rating, Morningglory” value [8, 15] was 70, the “Plant response rating, Foxtail, Giant” value [9, 16] was 80 and the “Foxtail, Giant plant response rating” value [9, 17] was 90. For the same molecule, the “Plant response rating, Foxtail, Giant” value [9, 14] was 20, the “Plant response rating, Foxtail, Giant” value [9, 15] was 40 and the “Plant response rating, Crabgrass, Large” value [10, 13] was 90. For the same molecule, the “Crabgrass, Large plant response rating” value ([10]; Postemergence, 500 g ai/ha) was 100, the “Plant response rating, Crabgrass, Large” value [10, 14] was 40 and the “Plant response rating, Crabgrass, Large” value [10, 15] was 80.

With `O=C(C1=C(O)C2CCC(C2)C1=O)c1cnc(-c2ccccc2)n(CC2CCCO2)c1=O` (stereo not drawn) [Compound 250] the “Plant response rating, Flood, Ducksalad” value [1] was 75, the “Plant response rating, Ducksalad” value [1, 11] was 30 and the “Plant response rating, Ducksalad” value [1, 12] was 70. The “Ducksalad plant response rating” value [1] was 30, the “Plant response rating, Flood, Barnyardgrass” value [2] was 10 and the “Plant response rating, Barnyardgrass” value [2, 11] was 0. The “Plant response rating, Barnyardgrass” value [2, 12] was 10, the “Barnyardgrass plant response rating” value [2] was 0 and the “Plant response rating, Flood, Rice” value (rice (Oryza sativa)) was 0. The “Plant response rating, Rice” value (rice (Oryza sativa); [11]) was 0, the “Plant response rating, Rice” value (rice (Oryza sativa); [12]) was 0 and the “Rice plant response rating” value (rice (Oryza sativa)) was 0. The “Plant response rating, Flood, Sedge, Umbrella” value [3] was 70, the “Plant response rating, Sedge, Umbrella” value [3, 11] was 65 and the “Plant response rating, Sedge, Umbrella” value [3, 12] was 65. The “Sedge, Umbrella plant response rating” value [3] was 0, the “Plant response rating, Corn” value (corn (Zea mays); [13]) was 0 and the “Corn plant response rating” value (corn (Zea mays); Postemergence, 500 g ai/ha) was 70. The “Plant response rating, Corn” value (corn (Zea mays); [14]) was 0, the “Plant response rating, Corn” value (corn (Zea mays); [15]) was 0 and the “Plant response rating, Velvetleaf” value [4, 16] was 100. The “Velvetleaf plant response rating” value [4, 17] was 100, the “Plant response rating, Velvetleaf” value [4, 14] was 50 and the “Plant response rating, Velvetleaf” value [4, 15] was 90. For the same molecule, the “Plant response rating, Pigweed” value [5, 16] was 100, the “Pigweed plant response rating” value [5, 17] was 100 and the “Plant response rating, Pigweed” value [5, 14] was 60. The “Plant response rating, Pigweed” value [5, 15] was 100, the “Plant response rating, Barnyardgrass” value [6, 13] was 50 and the “Barnyardgrass plant response rating” value ([6]; Postemergence, 500 g ai/ha) was 100. The “Plant response rating, Barnyardgrass” value [6, 14] was 0, the “Plant response rating, Barnyardgrass” value [6, 15] was 40 and the “Plant response rating, Wheat” value [7, 16] was 0. For the same molecule, the “Wheat plant response rating” value [7, 17] was 20, the “Plant response rating, Wheat” value [7, 14] was 0 and the “Plant response rating, Wheat” value [7, 15] was 10. The “Plant response rating, Morningglory” value [8, 16] was 100, the “Morningglory plant response rating” value [8, 17] was 100 and the “Plant response rating, Morningglory” value [8, 14] was 10. The “Plant response rating, Morningglory” value [8, 15] was 60, the “Plant response rating, Foxtail, Giant” value [9, 16] was 90 and the “Foxtail, Giant plant response rating” value [9, 17] was 100. For the same molecule, the “Plant response rating, Foxtail, Giant” value [9, 14] was 30, the “Plant response rating, Foxtail, Giant” value [9, 15] was 60 and the “Plant response rating, Crabgrass, Large” value [10, 13] was 60. For the same molecule, the “Crabgrass, Large plant response rating” value ([10]; Postemergence, 500 g ai/ha) was 100, the “Plant response rating, Crabgrass, Large” value [10, 14] was 30 and the “Plant response rating, Crabgrass, Large” value [10, 15] was 90.
